According to patent US12110289B2, “Heterocyclic compounds, preparation methods and uses thereof” (InventisBio Co., Ltd., priority 2020, dated 2024):
Where two headings read alike, the source gives them in different places.

Experiments:
[1] = tested on: Lung cancer cell line NCI-H358 containing KRas G12C mutation; experiment: Assay for cell proliferation (Cell-titer Glo, 5 days); type: cell-based, human; conditions: for IC50: Homo sapiens, NCI-H358, 120 h, read-out: IC50 (nM), Inhibition of NCI-H358 Cell Proliferation
Outline: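 NCI-H358 (KRas G12C) cells, 2000 per well, attached overnight at 37 °C, 5% CO2, then treated with compound for 5 days at 0.5% DMSO final. Proliferation measured by CellTiter-Glo luminescence after 10 min at RT.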

[2] = Human hepatocyte clearance study; type: in vitro ADME; conditions: human, pooled cryopreserved human hepatocytes (suspension); for hepatocyte CLint at 1 µM: read-out: Human In vitro Clint (μl/min/10^6 cells); for half-life at 1 µM: read-out: Human In vitro T1/2; for CLint scaled at 1 µM: read-out: Human Scale-up Clint
Procedure: (§1) The in vitro human hepatocyte clearance of compounds described here was studied using pooled human hepatocytes purchased from BioreclamationIVT (Westbury, NY, Cat #X008001, Lot #TQJ). The assay was conducted according to manufacturer's instruction. Briefly, 10 mM stock solutions of test compounds and positive control (Verapamil) were prepared in 100% DMSO. Thawing media (50 mL) used in the study consists of 31 mL Williams E medium (GIBCO Cat #12551-032), 15 mL isotonic percoll (GE Healthcare Cat #17-0891-09), 500 uL 100× GlutaMax (GIBCO Cat #35050), 750 uL HEPES (GIBCO Cat #15630-080), 2.5 mL FBS (Corning Cat #35-076-CVR), 50 uL human insulin (GIBCO Cat #12585-014) and 5 uL dexamethasone (NICPBP). Incubation media is made of Williams E medium supplemented with 1× GlutaMax. Both thawing medium and incubation medium (serum-free) were placed in a 37° C. water bath for at least 15 minutes prior to use. Compound stock solutions were diluted to 100 μM by combining 198 μL of 50% acetonitrile/50% water and 2 μL of 10 mM stock solution. Verapamil was use as positive control in the assay. Vials of cryopreserved hepatocytes were removed from storage and thawed in a 37° C. water bath with gentle shaking. Contents of the vial were poured into the 50 mL thawing medium conical tube. Vials were centrifuged at 100 g for 10 minutes at room temperature. […] […] […] The boiled hepatocytes were used to prepare negative samples. Aliquots of 198 μL hepatocytes were dispensed into each well of a 96-well non-coated plate. The plate was placed in the incubator on an orbital shaker at 500 rpm for approximately 10 minutes. Aliquots of 2 μL of the 100 μM test compound or positive control were added into respective wells of the non-coated 96-well plate to start the reaction. This assay was performed in duplicate. The plate was incubated in the incubator on an orbital shaker at 500 rpm for the designated time points. Twenty-five microliter of contents were transferred and mixed with 6 volumes (150 μL) of cold acetonitrile with IS (200 nM imipramine, 200 nM labetalol and 200 nM diclofenac) to terminate the reaction at time points of 0, 15, 30, 60, 90 and 120 minutes. Samples were centrifuged at 3,220 g for 25 minutes and aliquots of 150 μL of the supernatants were used for LC-MS/MS analysis. For data analysis, all calculations were carried out using Microsoft Excel. Peak areas were determined from extracted ion chromatograms. The in vitro half-life (t1/2) of parent compound was determined by regression analysis of the percent parent disappearance vs. time curve. […] Scaling factors for in vivo intrinsic clearance prediction using human hepatocytes are listed as: liver weight (g liver/kg body weight): 25.7; hepatocyte concentration (10^6 cells/g liver): 99; scaling factor: 2544.3.

[3] = tested on: pooled human hepatocytes; experiment: Human hepatocyte clearance study; type: in vitro ADME
Procedure: as §1

[4] = tested on: NCI-H358 xenograft; experiment: NSCLC H358 xenograft model, tumor volume; type: in vivo, BALB/c nude mice
Procedure: (§2) All the procedures related to animal handling, care and the treatment in this study were performed according to the guidelines approved by the Institutional Animal Care and Use Committee (IACUC) of SIPPER B&K following the guidance of the Association for Assessment and Accreditation of Laboratory Animal Care (AAALAC). At the time of routine monitoring, the animals were checked for any effects of tumor growth on normal behavior such as mobility, food and water consumption (by looking only), body weight gain/loss (body weights were measured twice weekly), eye/hair matting and any other abnormal effect. Death and observed clinical signs were recorded on the basis of the numbers of animals within each subset.
(§3) The NCI-H358, SW837, NCI-H2122 tumor cells were purchased from the American Type Culture Collection (ATCC). Cells were maintained in vitro as monolayer cultured in RPMI-1640 or DMEM medium supplemented with 10% fetal bovine serum, 50 IU/ml penicillin/streptomycin (GIBCO) at 37° C. in an atmosphere of 5% CO2 in air. The tumor cells were routinely sub cultured twice weekly by trypsin-EDTA treatment. The cells growing in an exponential growth phase were harvested and counted for tumor inoculation.
(§4) For tumor bearing models, female 6- to 8-week-old athymic BALB/c nude mice were used for human cancer cell lines. Each mouse was inoculated subcutaneously at the right flank with tumor cells (10×10^6) in 0.1 ml of PBS. The treatments were started when the average tumor size reached approximately 200-250 mm^3. Carboplatin, Cisplatin was injected twice a week by i.p. Vehicles and other test articles were given orally as a suspension by gavage once daily during the study or treatment period.
(§5) Tumor volume was calculated by measuring two perpendicular diameters using the following formula: (L×W 2)/2 in which L and W refer to the length and width tumor diameter, respectively. Results are expressed as mean and standard deviation of the mean.

[5] = Rat PK study, single i.g. dose; type: in vivo; conditions: female, SD, plasma, PO, 10 mg/kg
Procedure: The pharmacokinetic (PK) profile of compounds following single i.g in SD rat obtained from […] Laboratory Animal Co., LTD of Shanghai was determined. Three female rats of weight around 220 g were used. Compounds were prepared at 1 mg/ml with the formulation of 10% DMSO+10% solutol HS15+80% (10% HPβCD in water). Blood samples (0.2 mL) were collected at 0 h (pre-dose) and 0.25, 0.5, 1, 2, 4, 8, 24 h time points after administration of compounds at the dose of 10 mg/kg. The collected blood samples were centrifuged without delay and the plasma was separated and transferred into tubes before storage at -70° C. prior to analysis. Aliquots of the plasma unknowns, blank and calibration standards were placed in 1.5 mL tubes and mixed with acetonitrile/methanol (1/1, v/v) containing IS. After vortexing for 5 min, each sample was centrifuged at 14000 rpm at 4° C. for 10 min. The supernatant were injected into the LC-MS/MS system. […] Eluates were analyzed using an API4000 Q-Trap mass spectrometer with a TurboIonSpray interface. Chromatographic separation was done with a mobile phase composed of water with 0.1% formic acid (solution A) and acetonitrile with 0.1% formic acid (solution B). The mobile phase was delivered at a flow rate of 0.6 mL/min, using a stepwise gradient elution program. To improve the sensitivity of the test compound screening, a MRM method in positive electrospray ionization mode was employed. Mass spectrometry data was acquired and analyzed using AB Sciex Analyst version 1.6.2 software. The pharmacokinetic parameters were derived using standard noncompartmental methods with Phoenix WinNonLin Professional Version 8.1.

[6] = tested on: SW837 xenograft; experiment: Colorectal adenocarcinoma SW837 xenograft model, tumor volume; type: in vivo, BALB/c nude mice
Procedure: as §2, §3, §4, §5

[7] = NCI-H358, 5 days, Cell-titer Glo
[8] = working cell density 2 × 10^6 viable cells/mL
[9] = working cell density 0.5 × 10^6 viable cells/mL
[10] = working cell density 0.5 × 10^6 viable cells/mL, scaling factor 2544.3

Row | Structure (SMILES) | IC50 [1, 7] | hepatocyte CLint at 1 µM [2, 8] | half-life at 1 µM [2, 8] | CLint scaled at 1 µM [2, 8] | Human Hepatocyte Remaining Percentage @ 120 min (%) [3, 8] | other results
1 | C=CC(=O)N1C[C@H](C)N(c2nc(=O)n(-c3c(F)cc4c(ncn4C)c3C(C)C)c3nc(-c4c(N)cccc4F)c(F)cc23)C[C@H]1C (atropisomer, axis not shown) [Compound 145] | 1.4 nM | 1 µL/min/1e6 cells | 11.5 h | 2.6 mL/min/kg | 82.9% | reduction of tumor volume, combined treatment vs either agent alone ([4]; Compound 145 at 5 mg/kg combined with carboplatin at 30 mg/kg, FIG. 4): much better reduction of tumor volume
2 | C=CC(=O)N1CCN(c2nc(=O)n(-c3c(C4CC4)ncnc3C3CC3)c3nc(-c4c(O)cccc4F)c(F)cc23)[C@@H](C)C1 [Compound 40] | 7.5 nM | 12.7 µL/min/1e6 cells | 0.91 h | 32.3 mL/min/kg | 20.7% | 
3 | C=CC(=O)N1CCN(c2nc(=O)n(-c3c(C4CC4)ncnc3C3CC3)c3nc(-c4c(N)cccc4F)c(F)cc23)[C@@H](C)C1 [Compound 41] | 6.9 nM | 8.2 µL/min/1e6 cells | 1.41 h | 20.9 mL/min/kg | 38.9% | 
4 | C=CC(=O)N1C[C@H](C)N(c2nc(=O)n(-c3c(C4CC4)ncnc3C3CC3)c3nc(-c4c(N)cccc4F)c(F)cc23)C[C@H]1C [Compound 44] |  | 4 µL/min/1e6 cells | 2.87 h | 10.2 mL/min/kg | 61.7% | potency in inhibiting KRAS G12C compared with corresponding isopropyl analogs [1]: better potency; IC50 [1]: 2.1 nM; fold more potent: 2-amino-6-fluoro-phenyl compound vs. corresponding 2-fluoro-phenyl compound at R8 ([1]; NCI-H358 IC50 comparison): about 19 ×; human hepatocyte clearance profile compared to control compounds [3]: better human hepatocyte clearance profile; AUC(0-t) ([5]; read-out: Rat PO (10 mpk) AUC last): 4.3 µM·h; Cmax ([5]; read-out: Rat PO (10 mpk) Cmax): 1380 nM; bioavailability ([5]; read-out: Rat PO (10 mpk) F %): 71%; reducing tumor volume compared with AMG510 ([6]; 60 mg/kg oral once daily vs AMG510 at 60 mg/kg, FIG. 1): more effective than AMG510; reduction of tumor volume, combined treatment vs either agent alone ([6]; Compound 44 at 30 mg/kg combined with trametinib at 1 mg/kg, FIG. 6): much better reduction of tumor volume; reducing tumor volume compared with AMG510 ([4]; 30 mg/kg oral once daily vs AMG510 at 30 mg/kg, FIG. 2): more effective than AMG510
5 | C=CC(=O)N1C[C@H](C)N(c2nc(=O)n(-c3c(C4CC4)nc(C)nc3C3CC3)c3nc(-c4c(O)cccc4F)c(F)cc23)C[C@H]1C [Compound 52] | 22.8 nM |  |  |  |  | hepatocyte CLint at 1 µM [2, 9]: 7.3 µL/min/1e6 cells; half-life at 1 µM [2, 9]: 3.17 h; CLint scaled at 1 µM [2, 10]: 18.5 mL/min/kg; Human Hepatocyte Remaining Percentage @ 120 min (%) [3, 9]: 65.3%
6 | C=CC(=O)N1CCN(c2nc(=O)n(-c3ccc4c(ncn4C)c3C(C)C)c3nc(-c4ccccc4F)c(Cl)cc23)[C@@H](C)C1 [Compound 72] | 13.1 nM |  |  |  |  | hepatocyte CLint at 1 µM [2, 9]: 13.3 µL/min/1e6 cells; half-life at 1 µM [2, 9]: 1.73 h; CLint scaled at 1 µM [2, 10]: 34 mL/min/kg; Human Hepatocyte Remaining Percentage @ 120 min (%) [3, 9]: 41.2%
7 | C=CC(=O)N1CCN(c2nc(=O)n(-c3c(C4CC4)ncnc3C3CC3)c3nc(-c4c(N)cccc4F)c(Cl)cc23)[C@@H](C)C1 [Compound 124] | 2.4 nM | 8.5 µL/min/1e6 cells | 1.35 h | 21.7 mL/min/kg | 37.5% | 
8 | C=CC(=O)N1CCN(c2nc(=O)n(-c3c(C4CC4)ncnc3C3CC3)c3nc(-c4c(O)cccc4F)c(Cl)cc23)[C@@H](C)C1 [Compound 125] | 6.1 nM | 14.5 µL/min/1e6 cells | 0.8 h | 36.8 mL/min/kg | 16.5% | 
9 | C=CC(=O)N1C[C@H](C)N(c2nc(=O)n(-c3c(C4CC4)ncnc3C3CC3)c3nc(-c4c(O)cccc4F)c(Cl)cc23)C[C@H]1C [Compound 127] | 3.5 nM | 4.4 µL/min/1e6 cells | 2.64 h | 11.1 mL/min/kg | 55.5% | 
10 | C=CC(=O)N1C[C@H](C)N(c2nc(=O)n(-c3c(C4CC4)ncnc3C3CC3)c3nc(-c4ccccc4F)c(Cl)cc23)C[C@H]1C [Compound 128] | 8.7 nM | 10.3 µL/min/1e6 cells | 1.12 h | 26.1 mL/min/kg | 39.9% | 
